Reference: ChEMBL document CHEMBL1201862, “PubChem BioAssay data set” (2004)
Activity calls are given as the source filed them.

Assays:
Mucolipin-3 = target: T1, Mucolipin-3 (Homo sapiens, UniProt Q8TDD5); assay: Dose response cell-based high-throughput screening assay for agonists of the transient receptor potential channel ML3 (TRPML3). [Related pubchem assays: 1526, 1424, 1448 ]; assay type: functional
T1 sequence (Q8TDD5 whole entry): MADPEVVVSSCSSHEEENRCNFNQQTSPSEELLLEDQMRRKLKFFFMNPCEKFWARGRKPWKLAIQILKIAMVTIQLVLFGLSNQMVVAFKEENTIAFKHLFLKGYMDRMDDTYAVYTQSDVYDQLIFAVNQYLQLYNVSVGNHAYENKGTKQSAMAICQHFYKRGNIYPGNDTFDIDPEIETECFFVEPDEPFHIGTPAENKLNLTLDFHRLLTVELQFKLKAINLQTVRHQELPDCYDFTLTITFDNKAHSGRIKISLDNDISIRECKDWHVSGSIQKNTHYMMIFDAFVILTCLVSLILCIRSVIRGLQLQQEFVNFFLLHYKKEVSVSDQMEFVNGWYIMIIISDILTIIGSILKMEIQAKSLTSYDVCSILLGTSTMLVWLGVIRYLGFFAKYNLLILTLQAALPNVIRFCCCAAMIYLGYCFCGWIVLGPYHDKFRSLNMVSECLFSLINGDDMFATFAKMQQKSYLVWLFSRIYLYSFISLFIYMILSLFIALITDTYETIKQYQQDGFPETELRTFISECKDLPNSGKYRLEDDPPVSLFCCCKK

Ion channel NompC = Ion channel NompC (Danio rerio, UniProt Q7T1G6); assay: Fluorescence counterscreen assay for TRPML3 agonists: dose response cell-based high-throughput screening assay to identify agonists of the transient receptor potential channel N1 (TRPN1). [Related pubchem assays: 1526, 1424, 1448 ]; assay type: functional
[1] = target: T2, Replicative DNA helicase DnaB (Mycobacterium tuberculosis, UniProt P9WMR3); assay: DnaB intein splicing inhibitors, dose response, biochemical, cell-free fluorescence (AID 449749); assay type: functional
T2 sequence (P9WMR3 whole entry): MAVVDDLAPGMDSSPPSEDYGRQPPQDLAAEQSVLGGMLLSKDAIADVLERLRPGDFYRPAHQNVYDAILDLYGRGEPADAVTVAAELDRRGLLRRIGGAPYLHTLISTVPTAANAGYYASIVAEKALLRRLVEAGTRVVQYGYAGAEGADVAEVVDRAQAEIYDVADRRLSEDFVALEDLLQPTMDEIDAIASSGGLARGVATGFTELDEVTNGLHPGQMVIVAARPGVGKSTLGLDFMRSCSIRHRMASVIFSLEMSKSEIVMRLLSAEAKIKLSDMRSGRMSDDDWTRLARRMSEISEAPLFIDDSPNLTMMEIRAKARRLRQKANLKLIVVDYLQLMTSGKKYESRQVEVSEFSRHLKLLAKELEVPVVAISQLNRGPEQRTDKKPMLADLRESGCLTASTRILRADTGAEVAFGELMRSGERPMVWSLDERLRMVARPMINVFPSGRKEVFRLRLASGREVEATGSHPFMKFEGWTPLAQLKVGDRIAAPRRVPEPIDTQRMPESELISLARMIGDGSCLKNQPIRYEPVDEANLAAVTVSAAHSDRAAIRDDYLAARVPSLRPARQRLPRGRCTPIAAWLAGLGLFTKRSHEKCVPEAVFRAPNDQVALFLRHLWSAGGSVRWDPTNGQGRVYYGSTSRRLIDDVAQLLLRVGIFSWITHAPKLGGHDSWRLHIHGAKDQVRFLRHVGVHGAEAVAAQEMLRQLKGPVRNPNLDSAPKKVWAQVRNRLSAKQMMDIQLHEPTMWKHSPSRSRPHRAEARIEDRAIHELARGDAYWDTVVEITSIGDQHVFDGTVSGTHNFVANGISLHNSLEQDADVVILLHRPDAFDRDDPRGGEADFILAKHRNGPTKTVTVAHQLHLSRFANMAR

fMet-Leu-Phe receptor = target: T3, fMet-Leu-Phe receptor (Homo sapiens, UniProt P21462); assay: formyl peptide receptor binders – dose response (AID 519); assay type: functional
T3 sequence (P21462 whole entry): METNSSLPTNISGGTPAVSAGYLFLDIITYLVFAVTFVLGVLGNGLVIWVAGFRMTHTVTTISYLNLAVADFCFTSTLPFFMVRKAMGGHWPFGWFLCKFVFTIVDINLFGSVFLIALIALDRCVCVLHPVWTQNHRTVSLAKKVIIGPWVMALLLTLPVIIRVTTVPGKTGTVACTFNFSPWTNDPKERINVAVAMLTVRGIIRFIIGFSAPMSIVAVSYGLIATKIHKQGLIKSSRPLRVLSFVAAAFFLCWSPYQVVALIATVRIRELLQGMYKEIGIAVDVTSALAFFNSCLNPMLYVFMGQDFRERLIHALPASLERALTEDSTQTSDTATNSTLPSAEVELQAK

Protein RecA = target: T4, Protein RecA (Mycobacterium tuberculosis, UniProt P9WHJ3); assay: Fluorescence Cell-Free Homogeneous Dose Retest to Identify Inhibitors of RecA-Intein Splicing Activity. [Related pubchem assays (depositor defined):AID2097, AID2223, AID489010, AID492950]; assay type: functional
T4 sequence (P9WHJ3 whole entry): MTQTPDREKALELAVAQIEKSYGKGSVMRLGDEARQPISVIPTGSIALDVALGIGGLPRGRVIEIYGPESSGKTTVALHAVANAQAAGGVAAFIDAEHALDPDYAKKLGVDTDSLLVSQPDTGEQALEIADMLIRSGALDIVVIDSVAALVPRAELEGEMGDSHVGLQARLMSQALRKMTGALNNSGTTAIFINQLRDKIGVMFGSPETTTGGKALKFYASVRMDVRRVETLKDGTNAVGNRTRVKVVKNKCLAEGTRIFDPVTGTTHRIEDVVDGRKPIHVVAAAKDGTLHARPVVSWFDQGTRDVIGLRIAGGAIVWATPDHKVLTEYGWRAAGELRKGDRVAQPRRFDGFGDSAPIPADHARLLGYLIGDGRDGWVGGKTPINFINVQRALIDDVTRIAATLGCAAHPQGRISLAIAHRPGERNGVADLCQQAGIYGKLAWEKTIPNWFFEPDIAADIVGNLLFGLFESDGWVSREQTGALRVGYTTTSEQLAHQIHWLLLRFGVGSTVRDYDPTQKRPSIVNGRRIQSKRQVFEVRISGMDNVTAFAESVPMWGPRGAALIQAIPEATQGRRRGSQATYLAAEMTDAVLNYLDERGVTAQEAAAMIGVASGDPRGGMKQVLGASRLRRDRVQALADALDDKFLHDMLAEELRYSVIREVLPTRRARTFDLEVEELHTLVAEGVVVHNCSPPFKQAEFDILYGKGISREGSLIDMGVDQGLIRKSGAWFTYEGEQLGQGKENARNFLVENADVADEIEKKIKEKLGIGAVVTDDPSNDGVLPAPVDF

[2] = target: T5, Fructose-bisphosphate aldolase (Mycobacterium tuberculosis, UniProt P9WQA3); assay: Fluorescence-based biochemical high throughput dose response assay for inhibitors of the fructose-bisphosphate aldolase (FBA) of M. tuberculosis.; assay type: functional
T5 sequence (P9WQA3 whole entry): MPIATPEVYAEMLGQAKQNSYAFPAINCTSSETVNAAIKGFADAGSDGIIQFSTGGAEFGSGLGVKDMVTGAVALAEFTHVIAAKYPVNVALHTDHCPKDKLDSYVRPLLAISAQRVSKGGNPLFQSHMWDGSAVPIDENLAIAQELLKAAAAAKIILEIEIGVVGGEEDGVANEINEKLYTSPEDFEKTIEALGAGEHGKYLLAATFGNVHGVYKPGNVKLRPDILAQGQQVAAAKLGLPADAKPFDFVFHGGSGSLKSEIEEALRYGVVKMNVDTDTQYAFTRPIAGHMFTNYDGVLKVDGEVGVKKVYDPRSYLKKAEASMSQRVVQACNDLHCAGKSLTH

[3] = RKO cell viability reduction, dose response, CellTiter-Glo luminescence (AID 1117322); assay type: functional
[4] = CellTiter-Glo luminescence survival assay, SW480 colon tumor line, concentration-response curve, half-maximal inhibitory concentration (AID 1117338); assay type: functional
[5] = Reduced DLD-1 viability, concentration-response, CellTiter-Glo luminescence (AID 1117352); assay type: functional
[6] = HCT116 cell viability decrease, GSK3B pretreatment – CellTiter-Glo, IC50, dose response (AID 1117339); assay type: functional; conditions: HCT-116
[7] = cytotoxicity toward HT-29 cells – cell-based, CellTiter-Glo luminescence, IC50, dose response (AID 1117330); assay type: functional
[8] = cytotoxicity toward Colo320 cells – cell-based, CellTiter-Glo luminescence, IC50, dose response (AID 1117334); assay type: functional; conditions: COLO 320
[9] = cytotoxicity toward HCT116 cells – cell-based, CellTiter-Glo luminescence, IC50, dose response (AID 1117332); assay type: functional; conditions: HCT-116
[10] = SNU-C1 cell viability reduction, dose response, CellTiter-Glo luminescence (AID 1117323); assay type: functional, cell-based
Nonstructural protein 1 = Nonstructural protein 1 (Influenza A virus, UniProt Q194T2); assay type: functional, Influenza A virus (A/California/07/2009(H1N1))
[11] = NIH-3T3 fibroblast cytotoxicity, dose response, cytotoxicity control, cell-based, fluorescence, Alamar Blue, secondary assay (AID 2327); assay type: functional;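 note: NIH-3T3 mouse fibroblasts cultured with fluconazole at 8 µg/mL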
[12] = fluconazole-exposed Candida albicans growth modulators – fluorescence, retest, confirmation (AID 2467); assay type: functional, cell-based
[13] = target: T6, Mannose-6-phosphate isomerase (Homo sapiens, UniProt P34949); assay: MPI enzyme activity inhibition – biochemical, fluorescence intensity, coupled assay, primary screen (AID 1209)
T6 sequence (P34949 whole entry): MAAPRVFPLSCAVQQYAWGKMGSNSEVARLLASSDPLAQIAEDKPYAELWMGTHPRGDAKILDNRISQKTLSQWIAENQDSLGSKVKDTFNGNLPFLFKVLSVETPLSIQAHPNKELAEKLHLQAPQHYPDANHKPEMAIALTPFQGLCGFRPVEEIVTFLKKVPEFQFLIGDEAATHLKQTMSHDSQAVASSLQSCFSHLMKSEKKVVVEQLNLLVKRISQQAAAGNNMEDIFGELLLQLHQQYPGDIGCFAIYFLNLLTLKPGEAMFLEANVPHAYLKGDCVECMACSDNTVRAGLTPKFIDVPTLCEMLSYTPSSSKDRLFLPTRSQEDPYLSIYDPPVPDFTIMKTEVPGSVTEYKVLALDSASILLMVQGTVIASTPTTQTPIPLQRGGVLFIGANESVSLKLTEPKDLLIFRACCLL

Chain of Ion channel NompC (Q7T1G6 whole entry): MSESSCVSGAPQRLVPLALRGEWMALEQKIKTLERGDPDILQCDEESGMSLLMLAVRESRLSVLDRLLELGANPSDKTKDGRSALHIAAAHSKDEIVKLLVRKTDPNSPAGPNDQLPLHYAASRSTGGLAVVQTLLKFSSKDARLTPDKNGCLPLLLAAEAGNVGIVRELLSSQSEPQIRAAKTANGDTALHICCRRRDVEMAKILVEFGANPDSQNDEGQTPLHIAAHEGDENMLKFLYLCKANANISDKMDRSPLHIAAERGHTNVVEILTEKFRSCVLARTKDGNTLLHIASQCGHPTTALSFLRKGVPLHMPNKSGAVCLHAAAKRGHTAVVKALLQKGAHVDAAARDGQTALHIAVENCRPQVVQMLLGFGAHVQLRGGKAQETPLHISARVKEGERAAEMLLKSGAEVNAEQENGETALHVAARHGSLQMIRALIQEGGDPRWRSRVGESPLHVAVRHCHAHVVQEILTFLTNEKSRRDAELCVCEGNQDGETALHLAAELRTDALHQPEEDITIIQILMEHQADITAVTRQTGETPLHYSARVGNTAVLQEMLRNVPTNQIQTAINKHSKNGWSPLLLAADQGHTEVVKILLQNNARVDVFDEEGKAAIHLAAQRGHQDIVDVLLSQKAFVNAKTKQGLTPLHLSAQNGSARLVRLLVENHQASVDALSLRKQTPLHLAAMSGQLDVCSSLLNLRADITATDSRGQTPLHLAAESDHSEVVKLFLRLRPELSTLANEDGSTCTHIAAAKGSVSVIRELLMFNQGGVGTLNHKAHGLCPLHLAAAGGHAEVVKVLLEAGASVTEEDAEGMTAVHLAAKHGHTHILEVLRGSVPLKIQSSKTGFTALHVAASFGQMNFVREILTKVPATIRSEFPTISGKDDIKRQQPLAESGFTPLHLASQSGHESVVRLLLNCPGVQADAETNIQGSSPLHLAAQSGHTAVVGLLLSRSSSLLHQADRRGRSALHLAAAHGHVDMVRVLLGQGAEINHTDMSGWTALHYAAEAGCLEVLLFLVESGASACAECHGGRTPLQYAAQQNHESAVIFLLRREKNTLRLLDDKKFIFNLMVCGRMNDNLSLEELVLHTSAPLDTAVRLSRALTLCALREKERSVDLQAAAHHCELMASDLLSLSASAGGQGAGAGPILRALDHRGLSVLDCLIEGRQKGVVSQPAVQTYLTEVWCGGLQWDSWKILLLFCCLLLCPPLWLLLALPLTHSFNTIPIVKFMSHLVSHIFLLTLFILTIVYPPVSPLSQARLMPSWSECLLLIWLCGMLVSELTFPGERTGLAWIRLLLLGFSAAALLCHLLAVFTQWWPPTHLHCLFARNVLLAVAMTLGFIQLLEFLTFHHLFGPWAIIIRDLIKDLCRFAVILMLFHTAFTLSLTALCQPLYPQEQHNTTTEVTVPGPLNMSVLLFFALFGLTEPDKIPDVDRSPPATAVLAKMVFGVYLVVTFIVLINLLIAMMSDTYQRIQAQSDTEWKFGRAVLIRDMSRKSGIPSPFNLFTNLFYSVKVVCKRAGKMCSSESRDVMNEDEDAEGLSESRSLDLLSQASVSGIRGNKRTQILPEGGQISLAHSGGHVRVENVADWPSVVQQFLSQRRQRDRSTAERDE
Chain of Nonstructural protein 1 (Q194T2 whole entry): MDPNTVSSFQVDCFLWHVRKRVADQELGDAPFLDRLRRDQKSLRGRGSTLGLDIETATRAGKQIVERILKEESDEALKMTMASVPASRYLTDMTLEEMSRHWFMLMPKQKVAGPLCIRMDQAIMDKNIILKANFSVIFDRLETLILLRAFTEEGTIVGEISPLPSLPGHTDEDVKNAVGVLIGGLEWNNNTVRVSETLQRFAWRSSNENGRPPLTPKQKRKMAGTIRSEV

Question: Which results are given for COc1ccccc1N(C)S(=O)(=O)c1ccc(Cl)c(C(=O)OCc2c(C)noc2C)c1?
Answer: EC50 (Mucolipin-3): 3.01 µM (active); EC50 (Ion channel NompC): > 29.9 µM (not active)

Question: With COc1ccccc1-c1c(C)oc2cc(OC(=O)c3ccco3)ccc2c1=O as the compound, how does the AC50 [1] read?
Answer: Its AC50 is 21.8 µM (active).

Question: And the Ki (fMet-Leu-Phe receptor)?
Answer: Its Ki is 9 µM (active).

Question: And the EC50 (Protein RecA)?
Answer: Its EC50 is 23.8 µM (active).

Question: What about the IC50 [2] of the same compound?
Answer: The IC50 was 1.55 µM (active).

Question: Which IC50 [3] does the source give for CCCCCCCCOC(=O)c1ccccc1C(=O)OCCCCCCCC here?
Answer: The IC50 was > 20 µM (inactive).

Question: And the IC50 [4]?
Answer: The IC50 was > 20 µM (inactive).

Question: And the IC50 [5]?
Answer: Its IC50 is > 20 µM (inactive).

Question: What about the IC50 [6] of the same compound?
Answer: Its IC50 is > 20 µM (inactive).

Question: And the IC50 [7]?
Answer: The IC50 was > 20 µM (inactive).

Question: And the IC50 [8]?
Answer: Its IC50 is > 20 µM (inactive).

Question: What about the IC50 [9] of the same compound?
Answer: The IC50 was > 20 µM (inactive).

Question: And the IC50 [10]?
Answer: Its IC50 is > 20 µM (inactive).

Question: What does the source list for OCCN1CCN(Cc2cc(Cl)c3cccnc3c2O)CC1?
Answer: IC50 (Nonstructural protein 1): 3.93 µM (active); EC50 [11]: 121 µM (active); EC50 [12]: > 38 µM (not active); IC50 [13]: 4.09 µM (active)

Question: Which results are given for COc1ccc(N(CC(=O)N2CCCCC2)S(=O)(=O)c2ccccc2)c(OC)c1?
Answer: EC50 (Mucolipin-3): 1.84 µM (active); EC50 (Ion channel NompC): > 9.99 µM (not active)
